What was measured:
[1] = system: FCS-stimulated production of superoxides (O2^−) in normal human monocytes; assay: FCS-stimulated superoxide production of normal human monocytes in vitro (INT-formazan); format: cell-based; conditions: for O2^−: FCS 10%
Method: As already described, monocytes were isolated from 50 ml of venous blood which was repeatedly donated voluntarily for the experiments by healthy non-smoking subjects (n=4). […] To this end, the active compounds were incubated together with freshly isolated monocytes (10^5/ml) and the FCS stimulus (10%, from Sigma) for 20 hours in a cell culture medium (RPMI-1640, from Sigma). […] The determination of the cytosolic superoxide production is based on the reduction of the dye p-iodonitrotetrazolium violet (INTV), which reacts specifically with superoxide ions, to iodonitrotetrazolium formazan (formazan). INTV is taken up by the cells into the cytosol. Intracellularly, the nitrogen cycle of the INTV is reduced by free superoxide radicals, giving rise to a water-soluble intermediate and the water-insoluble formazan, which have their absorption maxima at 505 and 490 nm, respectively. […] At the end of an experiment, the cell lysate is (after treatment with hydrochloric acid) measured at 492 nm in a photometer. Here, the absorption of light is proportional to the amount of intracellularly accumulated INT-formazan which can then be determined using a formazan calibration curve. The INT-formazan accumulation for its part is determined as a measure for the intracellular production of superoxide.

[2] = system: IL-1beta production in LPS-stimulated human monocytes; assay: LPS-stimulated production of IL-1beta in human monocytes in vitro (ELISA); format: cell-based; conditions: for IL-1beta: LPS, 20 hours
Text: 1,8-Cineol intensifies in particular the action of subtherapeutic concentrations of beclometasone which are relevant for the peripheral respiratory tract.

[3] = becl. 10^−9 mol/l, Table 5 series
[4] = becl. 10^−9 mol/l, Table 6 series
[5] = becl. 10^−10 mol/l, Table 5 series
[6] = becl. 10^−10 mol/l, Table 6 series
[7] = becl. 10^−11 mol/l, Table 5 series
[8] = becl. 10^−11 mol/l, Table 6 series

**Q.** For `C[C@H]1C[C@H]2[C@@H]3CCC4=CC(=O)C=C[C@]4(C)[C@@]3(Cl)[C@@H](O)C[C@]2(C)[C@@]1(O)C(=O)CO` [beclometasone], which “O2^−” value [1, 3] is on record?
**A.** The value was 16052 ± 969 nmol/mL.

**Q.** And the “O2^−” value [1, 4]?
**A.** The value was 17338 ± 1305 nmol/mL.

**Q.** And the Percent of control [1, 3]?
**A.** Its Percent of control is −10 ± 6%.

**Q.** And the Percent of control [1, 4]?
**A.** The Percent of control was −8 ± 7%.

**Q.** And the “O2^−” value [1, 5]?
**A.** Its value is 16445 ± 903 nmol/mL.

**Q.** What about the “O2^−” value [1, 6] of the same molecule?
**A.** Its value is 17577 ± 1191 nmol/mL.

**Q.** What about the Percent of control [1, 5] of the same molecule?
**A.** Its Percent of control is −8 ± 5%.

**Q.** What about the Percent of control [1, 6] of the same molecule?
**A.** The Percent of control was −6 ± 7%.

**Q.** And the “O2^−” value [1, 7]?
**A.** Its value is 16562 ± 1081 nmol/mL.

**Q.** And the “O2^−” value [1, 8]?
**A.** The value was 17639 ± 1372 nmol/mL.

**Q.** And the Percent of control [1, 7]?
**A.** The Percent of control was −7 ± 6%.

**Q.** What about the Percent of control [1, 8] of the same molecule?
**A.** The Percent of control was −6 ± 8%.

**Q.** And the “O2^−” value ([1]; beclometasone 10^−6 mol/l, 20 hours, Table 3 series)?
**A.** The value was 18240 ± 463 nmol/mL.

**Q.** And the “O2^−” value ([1]; beclometasone 10^−7 mol/l, 20 hours, Table 3 series)?
**A.** The value was 16782 ± 678 nmol/mL.

**Q.** What about the Percent of control ([1]; beclometasone 10^−7 mol/l, vs FCS control, Table 3 series) of the same molecule?
**A.** The Percent of control was “+5.8 ± 4%”.

**Q.** And the “O2^−” value ([1]; beclometasone 10^−8 mol/l, 20 hours, Table 3 series)?
**A.** The value was 16035 ± 639 nmol/mL.

**Q.** And the Percent of control ([1]; beclometasone 10^−8 mol/l, vs FCS control, Table 3 series)?
**A.** The Percent of control was −1.1 ± 4%.

**Q.** And the “O2^−” value ([1]; beclometasone 10^−9 mol/l, 20 hours, Table 3 series)?
**A.** The value was 14192 ± 733 nmol/mL.

**Q.** And the Percent of control ([1]; beclometasone 10^−9 mol/l, vs FCS control, Table 3 series)?
**A.** Its Percent of control is −10.5±5%.

**Q.** And the “O2^−” value ([1]; beclometasone 10^−10 mol/l, 20 hours, Table 3 series)?
**A.** The value was 14702 ± 682 nmol/mL.

**Q.** What about the Percent of control ([1]; beclometasone 10^−10 mol/l, vs FCS control, Table 3 series) of the same molecule?
**A.** Its Percent of control is −7.3 ± 5%.

**Q.** And the “O2^−” value ([1]; beclometasone 10^−11 mol/l, 20 hours, Table 3 series)?
**A.** The value was 15042 + 568 nmol/ml.

**Q.** What about the Percent of control ([1]; beclometasone 10^−11 mol/l, vs FCS control, Table 3 series) of the same molecule?
**A.** The Percent of control was −5.1 ± 3%.

**Q.** And the “effect on the O2^− production” value ([1]; beclometasone 10^−11 to 10^−9 mol/l on its own, Table 6 series)?
**A.** The value was “no detectable effect on the O2^− production”.

**Q.** And the “O2^−” value ([1]; beclometasone 10^−12 mol/l, 20 hours, Table 3 series)?
**A.** Its value is 15050 ± 455 nmol/mL.

**Q.** What about the Percent of control ([1]; beclometasone 10^−12 mol/l, vs FCS control, Table 3 series) of the same molecule?
**A.** The Percent of control was −5.1 ± 3%.

**Q.** And the “monocyte O2^− production” value ([1]; high concentrations (10^−8 mol/l and above) of beclometasone, FIG. 4)?
**A.** Its value is “stimulated the monocyte O2^− production”.

**Q.** And the “Effect vs. cineol 10^−6 mol/l Inhibition (%)” value ([2]; beclometasone 10^−9 mol/l)?
**A.** The value was 25.2 ± 20%.

**Q.** What about the “Effect vs. control Inhibition (%)” value ([2]; beclometasone 10^−9 mol/l) of the same molecule?
**A.** Its value is 49.4 ± 20%.

**Q.** What about the IL-1beta ([2]; beclometasone 10^−9 mol/l) of the same molecule?
**A.** Its IL-1beta is 2654 ± 545 Pg/5 × 10^4 cells.

**Q.** And the “Effect vs. control Inhibition (%)” value ([2]; beclometasone 10^−10 mol/l)?
**A.** The value was 22.9 ± 23%.

**Q.** And the “production of IL-1beta, change” value ([2]; beclometasone 10^−10 mol/l)?
**A.** Its value is −22.9%.

**Q.** What about the “Effect vs. cineol 10^−6 mol/l Inhibition (%)” value ([2]; beclometasone 10^−10 mol/l, (+) in brackets = more IL-1beta than with cineol) of the same molecule?
**A.** Its value is “(+14 ± 23) %”.

**Q.** What about the IL-1beta ([2]; beclometasone 10^−10 mol/l) of the same molecule?
**A.** The IL-1beta was 4047 ± 940 Pg/5 × 10^4 cells.

**Q.** And the “Effect vs. control Inhibition (%)” value ([2]; beclometasone 10^−11 mol/l)?
**A.** Its value is 19.7 ± 20%.

**Q.** And the “production of IL-1beta, change” value ([2]; beclometasone 10^−11 mol/l)?
**A.** Its value is −19.7%.

**Q.** And the “Effect vs. cineol 10^−6 mol/l Inhibition (%)” value ([2]; beclometasone 10^−11 mol/l, (+) in brackets = more IL-1beta than with cineol)?
**A.** The value was “(+18.9 ± 20) %”.

**Q.** What about the IL-1beta ([2]; beclometasone 10^−11 mol/l) of the same molecule?
**A.** Its IL-1beta is 4217 ± 864 Pg/5 × 10^4 cells.

**Q.** What about the “Effect vs. control Inhibition (%)” value ([2]; beclometasone 10^−12 mol/l) of the same molecule?
**A.** Its value is 0.1 ± 19%.

**Q.** And the “production of IL-1beta, change” value ([2]; beclometasone 10^−12 mol/l)?
**A.** Its value is 0%.

**Q.** What about the “Effect vs. cineol 10^−6 mol/l Inhibition (%)” value ([2]; beclometasone 10^−12 mol/l, (+) in brackets = more IL-1beta than with cineol) of the same molecule?
**A.** The value was “(+47.8 ± 19) %”.

**Q.** What about the IL-1beta ([2]; beclometasone 10^−12 mol/l) of the same molecule?
**A.** The IL-1beta was 5246 ± 1028 Pg/5 × 10^4 cells.

**Q.** What about the “inhibition of LPS-stimulated production of IL-1beta” value ([2]; beclometasone on its own, concentration not given) of the same molecule?
**A.** Its value is 49.9±20%.
